Results reported in the supplement of paper PMC4862054.

Key:
Assay in all cases: normalised response (% of control), CellTiter-Glo; higher = more viable cells (100 = DMSO, 0 = benzethonium chloride kill control)
Conditions in all cases: incubation time: 72 h
CAL-148 = tested on: CAL-148
Procedure, shortened: (§1)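 After 72 h with compound in 384-well plates, breast cancer cell lines seeded as 20 µl suspension were read for CellTox Green fluorescence at 485/520 nm. CellTiter-Glo luminescence was then read after 10 min at room temperature. Compound was present at 5 concentrations in 10-fold steps over a 10,000-fold range set per compound, and plates were normalised to 0.1 % DMSO (100) and a positive kill control (0). Values are normalised signals, each at a single concentration.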

BT-474 = tested on: BT-474
Procedure, shortened: as §1

HCC1599 = tested on: HCC1599
Procedure, shortened: as §1

CAL-120 = tested on: CAL-120
Procedure, shortened: as §1

HCC1937 = tested on: HCC1937
Procedure, shortened: as §1

SK-BR-3 = tested on: SK-BR-3
Procedure, shortened: as §1

HCC1143 = tested on: HCC1143
Procedure, shortened: as §1

MDA-MB-453 = tested on: MDA-MB-453
Procedure, shortened: as §1

MDA-MB-436 = tested on: MDA-MB-436
Procedure, shortened: as §1

CAL-51 = tested on: CAL-51
Procedure, shortened: as §1

HDQ-P1 = tested on: HDQ-P1
Procedure, shortened: as §1

MFM-223 = tested on: MFM-223
Procedure, shortened: as §1

MCF-10A = tested on: MCF-10A
Procedure, shortened: as §1

BT-549 = tested on: BT-549
Procedure, shortened: as §1

DU-4475 = tested on: DU-4475
Procedure, shortened: as §1

MDA-MB-468 = tested on: MDA-MB-468
Procedure, shortened: as §1

Hs578T = tested on: Hs578T
Procedure, shortened: as §1

CAL-85-1 = tested on: CAL-85-1
Procedure, shortened: as §1

MDA-MB-231 = tested on: MDA-MB-231
Procedure, shortened: as §1

Row | Structure (SMILES) | normalised response (CAL-148) [%] | normalised response (BT-474) [%] | normalised response (HCC1599) [%] | normalised response (CAL-120) [%] | normalised response (HCC1937) [%] | normalised response (SK-BR-3) [%] | normalised response (HCC1143) [%] | normalised response (MDA-MB-453) [%] | normalised response (MDA-MB-436) [%] | normalised response (CAL-51) [%] | normalised response (HDQ-P1) [%] | normalised response (MFM-223) [%] | normalised response (MCF-10A) [%] | normalised response (BT-549) [%] | normalised response (DU-4475) [%] | normalised response (MDA-MB-468) [%] | normalised response (Hs578T) [%] | normalised response (CAL-85-1) [%] | normalised response (MDA-MB-231) [%]
1 | CN(C)CCN1C(=O)c2cccc3cc(N)cc(c23)C1=O [Amonafide] (1 nM) | 99.9 | 104 | 102 | 99.7 | 99.3 | 103 | 94 | 105 | 100 | 120 | 97.3 | 103 | 88.6 | 101 | 101 | 94.7 | 97.6 | 101 | 102
2 | CC(C)(C#N)c1cc(Cn2cncn2)cc(C(C)(C)C#N)c1 [Anastrozole] (1 nM) | 94.8 | 100 | 110 | 101 | 99.7 | 111 | 95.5 | 112 | 95.2 | 89.9 | 103 | 106 | 102 | 109 | 105 | 102 | 99.3 | 102 | 96.7
3 | CC(C)(C#N)c1cc(Cn2cncn2)cc(C(C)(C)C#N)c1 [Anastrozole] (10 nM) | 99.3 | 101 | 102 | 96.2 | 100 | 105 | 103 | 104 | 99.4 | 93.7 | 94.3 | 104 | 110 | 99 | 104 | 98.8 | 105 | 94.9 | 100
4 | CC(C)c1c(C(=O)Nc2ccccc2)c(-c2ccccc2)c(-c2ccc(F)cc2)n1CC[C@@H](O)C[C@@H](O)CC(=O)O [Atorvastatin] (1 nM) | 103 | 94 | 96.5 | 92.8 | 98.1 | 103 | 98.2 | 107 | 95.5 | 89.8 | 95.9 | 97.6 | 99.1 | 96.9 | 100 | 94.2 | 98.9 | 98.7 | 95.2
5 | CC(C)c1c(C(=O)Nc2ccccc2)c(-c2ccccc2)c(-c2ccc(F)cc2)n1CC[C@@H](O)C[C@@H](O)CC(=O)O [Atorvastatin] (10 nM) | 101 | 100 | 104 | 96.8 | 99.7 | 102 | 103 | 104 | 96.5 | 76.1 | 101 | 102 | 100 | 90 | 98.7 | 104 | 101 | 98.9 | 96.9
6 | O=C(O)CCCc1ccc(N(CCCl)CCCl)cc1 [Chlorambucil] (1 nM) | 96.8 | 102 | 98.4 | 97.1 | 102 | 95.6 | 102 | 118 | 132 | 128 | 101 | 102 | 100 | 102 | 102 | 96.9 | 107 | 99.4 | 101
7 | Cn1c(=O)n(-c2ccc(C(C)(C)C#N)cc2)c2c3cc(-c4cnc5ccccc5c4)ccc3ncc21 [Dactolisib] (0.1 nM) | 102 | 104 | 122 | 97.4 | 98.8 | 111 | 97.4 | 109 | 99.6 | 107 | 102 | 108 | 105 | 100 | 103 | 110 | 102 | 101 | 105
8 | CO[C@H]1C[C@@H]2CC[C@@H](C)[C@@](O)(O2)C(=O)C(=O)N2CCCC[C@H]2C(=O)O[C@H]([C@H](C)C[C@@H]2CC[C@@H](OCCO)[C@H](OC)C2)CC(=O)[C@H](C)/C=C(\C)[C@@H](O)[C@@H](OC)C(=O)[C@H](C)C[C@H](C)/C=C/C=C/C=C/1C [Everolimus] (0.01 nM) | 90.1 | 103 | 107 | 97.8 | 95.9 | 93.4 | 93 | 99.3 | 95.7 | 132 | 96.1 | 95.3 | 93.6 | 103 | 98.7 | 105 | 91.2 | 95.3 | 98.9
9 | CO[C@H]1C[C@@H]2CC[C@@H](C)[C@@](O)(O2)C(=O)C(=O)N2CCCC[C@H]2C(=O)O[C@H]([C@H](C)C[C@@H]2CC[C@@H](OCCO)[C@H](OC)C2)CC(=O)[C@H](C)/C=C(\C)[C@@H](O)[C@@H](OC)C(=O)[C@H](C)C[C@H](C)/C=C/C=C/C=C/1C [Everolimus] (0.1 nM) | 80.7 | 92 | 90.5 | 95.9 | 88 | 92 | 92 | 95.8 | 90.7 | 115 | 94.4 | 88.4 | 96 | 88 | 95 | 84.8 | 89.5 | 90 | 99.2
10 | CCCCCCCCc1ccc(CCC(N)(CO)CO)cc1 [Fingolimod] (1 nM) | 97.3 | 97.7 | 106 | 96.4 | 95.9 | 102 | 96.8 | 109 | 92.8 | 97.7 | 98.6 | 103 | 103 | 106 | 101 | 107 | 100 | 103 | 98
11 | CCCCCCCCc1ccc(CCC(N)(CO)CO)cc1 [Fingolimod] (10 nM) | 94.5 | 99.7 | 120 | 95.5 | 100 | 105 | 99.5 | 105 | 94.5 | 125 | 104 | 101 | 105 | 98.1 | 103 | 94.2 | 103 | 111 | 99.2
12 | Cc1ccc(NC(=O)c2ccc(CN3CCN(C)CC3)cc2)cc1Nc1nccc(-c2cccnc2)n1 [Imatinib] (1 nM) | 114 | 99.2 | 101 | 101 | 94.5 | 107 | 100 | 119 | 89.9 | 74.7 | 102 | 108 | 101 | 102 | 107 | 102 | 103 | 102 | 105
13 | Cc1ccc(NC(=O)c2ccc(CN3CCN(C)CC3)cc2)cc1Nc1nccc(-c2cccnc2)n1 [Imatinib] (10 nM) | 113 | 104 | 103 | 102 | 99.3 | 109 | 101 | 108 | 103 | 107 | 106 | 109 | 104 | 96.7 | 109 | 113 | 107 | 96 | 99.9
14 | c1ccc([C@H]2CN3CCSC3=N2)cc1 [Levamisole] (1 nM) | 113 | 106 | 106 | 98.1 | 99.4 | 109 | 103 | 112 | 97.4 | 69.9 | 104 | 106 | 107 | 106 | 105 | 112 | 105 | 99.9 | 107
15 | c1ccc([C@H]2CN3CCSC3=N2)cc1 [Levamisole] (10 nM) | 114 | 106 | 99.5 | 100 | 103 | 95.1 | 99.5 | 117 | 106 | 78.9 | 97 | 110 | 110 | 99 | 103 | 102 | 105 | 95.6 | 99.3
16 | Nc1nc(OCc2cc(Br)cs2)c2[nH]cnc2n1 [Lomeguatrib] (1 nM) | 92.5 | 100 | 90.9 | 101 | 103 | 102 | 97.6 | 97.6 | 110 | 118 | 104 | 102 | 108 | 103 | 99.2 | 96.2 | 99 | 99.9 | 101
17 | Nc1nc(OCc2cc(Br)cs2)c2[nH]cnc2n1 [Lomeguatrib] (10 nM) | 105 | 104 | 91.8 | 101 | 98.9 | 105 | 101 | 97.3 | 103 | 69.8 | 104 | 97.4 | 109 | 93.5 | 104 | 101 | 105 | 94.2 | 98.5
18 | COc1ccccc1S(=O)(=O)Nc1ccc2c(c1)CN(C)C(=O)N2 [PFI-1] (1 nM) | 107 | 93.7 | 80.6 | 100 | 99.2 | 104 | 94.2 | 105 | 94.8 | 77.9 | 96 | 101 | 112 | 96.5 | 104 | 90.8 | 107 | 98 | 103
19 | COc1ccccc1S(=O)(=O)Nc1ccc2c(c1)CN(C)C(=O)N2 [PFI-1] (10 nM) | 108 | 99.7 | 88.6 | 91.8 | 94.5 | 88.4 | 102 | 97.2 | 97.1 | 102 | 96 | 109 | 103 | 90.1 | 109 | 95.3 | 106 | 94.6 | 103
20 | C/C(=C\c1csc(C)n1)[C@@H]1C[C@@H]2O[C@]2(C)CCC[C@H](C)[C@H](O)[C@@H](C)C(=O)C(C)(C)[C@@H](O)CC(=O)O1 [Patupilone] (0.1 nM) | 113 | 110 | 108 | 104 | 98 | 98 | 97.6 | 101 | 98 | 81.4 | 105 | 103 | 102 | 98.7 | 106 | 107 | 99.3 | 104 | 101
